According to PMC9953224, “Pharmacokinetic Evaluation of New Drugs Using a Multi-Labelling Approach and PET Imaging: Application to a Drug Candidate with Potential Application in Neuromuscular Disorders” (Biomedicines, 2023):
Read-outs that look alike come from different tables or passages of the source.

Columns and labels:
[1] = In vitro metabolism with rat liver microsomes; type: in vitro ADME; conditions: NADPH, 30 min
Experimental: Labelled compounds ([^11C]AHK2.1, 2.8 MBq, 0.4 nmol; [^11C]AHK2.2, 4.7–5.1 MBq, 0.2–0.4 nmol; [^3H]AHK2, 0.25 MBq, 0.5 nmol; or non-radioactive AHK2, the latter for metabolite identification) and microsomal protein (rat Sprague Dawley microsomes, Thermo Fisher Scientific, Carlsbad, CA, USA; which are a sub-cellular fraction of hepatocytes containing enzymes responsible for the metabolism of over 90% of commercial drugs; 20 mg/mL) were pre-incubated for 5 min with gentle agitation (300 rpm) in 100 mM phosphate buffer (pH 7.4). The reaction was initiated by the addition of 10 μL freshly prepared 20 mM nicotinamide adenine dinucleotide phosphate (NADPH, Roche, Mannheim, Germany) in 100 mM phosphate buffer (pH 7.4). […] The resulting supernatants were analysed by HPLC, using an Agilent 1200 Series chromatograph equipped with a multiple wavelength UV detector (λ = 254 nm) and two radioactivity detectors, one of them equipped with a solid scintillation cell, especially designed to detect low energy β^- (Ramona, Raytest), and one of them equipped with a NaI crystal, for the detection of γ-rays (Gabi, Raytest). […] For the non-radioactive AHK2, the resulting supernatants were analysed by ultra-high-performance liquid chromatography coupled with electrospray ionization time-of-flight mass spectrometry (UHPLC-ESI-TOF-MS, Electrospray positive mode/W mode m/z range 100–1000). […]

[2] = Pharmacokinetics from metabolite-corrected arterial plasma TACs after oral administration; type: in vivo, Sprague Dawley Rats; conditions: for MRT / half-life: Sprague Dawley, rat, arterial plasma; for MRT: read-out: MRT mean residence time (converted); for half-life: read-out: t1/2 terminal half-life
Experimental: Anaesthesia was induced with 5% isoflurane (IsoFlo®, Abbott Laboratories, Abbott Park, IL, USA) and maintained by 2% of isoflurane in 100% O2. During the experiment, rats were kept normothermic using a heating blanket (Homeothermic Blanket Control Unit; Bruker). The rat was positioned in supine position on an operating table and the two distal hind limbs were fixed forming an approximately 30° angle with the horizontal plane. The surgical region was scrubbed using Betadine, starting in the centre, and making a circular sweep outward. A skin incision was made in the femoral region. Soft tissue was dissected to expose the femoral neurovascular bundle, consisting of femoral vein, artery, and nerve. Fine tip forceps were placed between the artery, vein and nerve and were slowly opened to separate the vessels, exposing an approximately 1 cm length section of artery/vein. The vena profunda femoris was sutured to avoid retrograde bleeding via this vessel, and the sapheno-femoral junction was cauterized. A few millimetres from venatomy, a vascular clip was inserted in the direction of the catheter (to control the flow) and a suture was applied in the opposite direction (to avoid retrograde bleeding). The same operation was carried out both on the femoral vein and femoral artery. An appropriate syringe filled with 50 U/mL Heparin/physiologic saline solution was fixed at the terminus of the catheters and these were filled with heparinized saline solution. On the upper half of the vessel circumference, at a 45° angle, an incision was made and the catheter (fine bore polythene tubing: ID 0.58 mm, OD 0.98 mm) was inserted through the venotomy and advanced to the vascular clip. The vascular clip was then removed, and the catheter advanced distally towards the level of the inguinal ligament. The catheter was finally secured to the femoral vein/artery proximally and distally with 2 single knots using 4–0 braided silk suture. The catheters were connected to an in-house developed system composed by a peristaltic pump and gamma-radiation coincidence detector (Bioscan, B-FC-4100). The femoral artery catheter, the gamma detector, the peristaltic pump, and the femoral vein catheter were thus connected in series, to enable the extracorporeal circulation of blood (flow 150 μL/s from femoral artery to femoral vein) and continuous measurement of radioactivity in the blood (Figure 1).
The labelled compounds were administrated two different ways: (i) intravenous bolus infusion (ca. 37 MBq in 300 μL of saline solution was injected through the femoral vein catheter) and (ii) oral bolus administration. For oral administration, animals were fasted for 5 h. The radioactive dose (ca. 74 MBq in 300 μL of saline solution) was administered using flexible 20-gauge disposable flexible PTFE feeding needles (Fine Science Tools, F.S.T.) and a small animal Laryngoscope (Penn-Century, Model LS-2) for the correct visualization of the oesophagus. The study was conducted under no carrier added (NCA, dose adjusted to 1 μg/Kg) and carrier added (CA, dose adjusted to 5 mg/Kg) conditions. In all cases, data were imported in real time to an excel sheet using PLX-DAX add-on for Microsoft Excel (measured in volts per second).
Arterial blood samples (1 per animal) were withdrawn (see Figure 1) from the femoral artery catheter and introduced into a capillary (Microhaematocrit capillaries 75 × 1.55, Nahita). Samples were centrifuged at 11,000× g […] for 10 min and the haematocrit was determined. A second blood sample was withdrawn and the amount of radioactivity of a fixed volume (10 µL) was measured in an automatic gamma counter (2470 Wizard, PerkinElmer) to determine Cb (concentration of radioactivity in blood) and convert data imported with PLX-DAX (Volts per seconds) into Bq/s using a previously determined calibration curve. Values were then expressed as percentage of injected dose per gram of blood (% ID/g). […]

[3] = both groups (1 µg/Kg and 5 mg/Kg) pooled together

In the case of COc1ccc(SCc2cn(CCN(C)C)nn2)cc1 [AHK2, 1-[2-(N,N-dimethylamino)ethyl]-4-[(4-methoxyphenyl)thiomethyl]-1H-1,2,3-triazole], the main metabolic pathways [1] is reported as “oxidation of the thioether group into sulfoxide, demethylation of the CH3O-Ar residue and demethylation of –N(CH3)2”, the “AUC area under the curve” value ([2]; 1 µg/Kg) is reported as 6.68 ± 4.35 %IDxs/mL and the Cl plasma clearance ([2]; 1 µg/Kg) is reported as 4.23 ± 3.58 mL/s. For the same compound, the “Vz volume of distribution based on the terminal slope” value (from here on “Vz volume … on the terminal slope”) ([2]; 1 µg/Kg) was 2728.14 ± 1252.35 mL, the “AUC area under the curve” value ([2]; 5 mg/Kg) was 13.35 ± 5.08 %IDxs/mL and the Cl plasma clearance ([2]; 5 mg/Kg) was 1.57 ± 0.69 mL/s. For the same compound, the “Vz volume … on the terminal slope” value ([2]; 5 mg/Kg) was 1624.28 ± 1299.35 mL, the MRT ([2]; 1 ug/kg) was 8.51 min and the half-life ([2]; 1 ug/kg) was 9.16 ± 3.78 min. The MRT ([2]; 5 mg/Kg) was 9.36 min, the half-life ([2]; 5 mg/Kg) was 13 ± 11.1 min and the MRT [2, 3] was 9 min. For the same compound, the half-life [2, 3] was 11.3 ± 8.44 min, the “AUC area under the curve” value [2, 3] was 10.49 ± 5.65 %IDxs/mL and the Cl plasma clearance [2, 3] was 2.71 ± 2.55 mL/s. For the same compound, the “Vz volume … on the terminal slope” value [2, 3] was 2097.36 ± 1309.61 mL.
